According to patent US20240109917A1 (ACTELION PHARMACEUTICALS LTD, priority 2020, published 2024):
Read-outs that look alike come from different tables or passages of the source.

Target: PDGFRβ (Rattus norvegicus (Rat), UniProt Q05030)
Test: PDGFRβ Cellular Assay (PDGFRb P-Y751 HTRF in A10 cells stimulated with PDGF-BB)
Assay type: cell-based
Outline: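 Rat A10 cells, plated overnight, were treated with compound for 3 hours, then stimulated with PDGF-BB (working stock 100 ng/mL in 10% FBS medium). After lysis, PDGFRβ P-Y751 was detected by HTRF.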

Sequence of PDGFRβ (Q05030 32-1097): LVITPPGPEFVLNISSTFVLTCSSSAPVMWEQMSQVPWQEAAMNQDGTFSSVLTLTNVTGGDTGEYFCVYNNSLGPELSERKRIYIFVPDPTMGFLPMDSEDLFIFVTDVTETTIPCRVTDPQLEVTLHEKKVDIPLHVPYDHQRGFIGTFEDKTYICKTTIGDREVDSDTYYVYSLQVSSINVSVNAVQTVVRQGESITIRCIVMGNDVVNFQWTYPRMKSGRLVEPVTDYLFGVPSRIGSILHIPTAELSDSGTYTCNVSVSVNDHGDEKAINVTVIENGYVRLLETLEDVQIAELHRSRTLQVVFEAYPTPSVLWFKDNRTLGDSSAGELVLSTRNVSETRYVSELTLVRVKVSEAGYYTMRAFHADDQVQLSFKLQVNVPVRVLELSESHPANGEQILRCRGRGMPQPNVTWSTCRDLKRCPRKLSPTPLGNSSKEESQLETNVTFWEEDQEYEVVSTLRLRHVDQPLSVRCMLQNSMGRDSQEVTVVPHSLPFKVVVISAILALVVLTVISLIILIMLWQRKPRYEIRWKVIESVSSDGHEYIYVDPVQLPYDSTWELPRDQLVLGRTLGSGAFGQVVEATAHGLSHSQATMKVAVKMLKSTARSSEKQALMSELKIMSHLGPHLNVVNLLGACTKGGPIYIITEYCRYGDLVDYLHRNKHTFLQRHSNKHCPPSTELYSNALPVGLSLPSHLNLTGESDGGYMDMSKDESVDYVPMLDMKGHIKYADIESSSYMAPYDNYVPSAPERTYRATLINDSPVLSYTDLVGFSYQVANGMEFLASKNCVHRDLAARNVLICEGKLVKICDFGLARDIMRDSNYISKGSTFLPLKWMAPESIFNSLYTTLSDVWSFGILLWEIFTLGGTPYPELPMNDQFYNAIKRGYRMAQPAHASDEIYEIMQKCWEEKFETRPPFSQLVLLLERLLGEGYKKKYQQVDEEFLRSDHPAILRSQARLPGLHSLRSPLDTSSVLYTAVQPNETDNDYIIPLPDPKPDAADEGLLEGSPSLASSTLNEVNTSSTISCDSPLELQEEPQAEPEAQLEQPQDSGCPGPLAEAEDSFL

| Compound | IC50 (read-out: PDGFR Cellular IC50) [nM] | IC50 (PDGFR Cellular IC50) [nM] |
| --- | --- | --- |
| Cc1ncc(C(=O)N2CC2CNC(C)(C)C)cc1NC(=O)c1cnn2cc(-c3cccc4c3cnn4C)sc12 (stereo not shown) [Example 239, N-(5-(2-((tert-butylamino)methyl)aziridine-1-carbonyl)-2-methylpyridin-3-yl)-2-(1-methyl-1H-indazol-4-yl)pyrazolo[5,1-b]thiazole-7-carboxamide] | 349 |  |
| Cc1ncc(C(=O)NCCN2CCCC2(C)C)cc1NC(=O)c1cnn2cc(-c3cncc(S(C)(=O)=O)c3)sc12 [Example 230, N-(5-((2-(2,2-dimethylpyrrolidin-1-yl)ethyl)carbamoyl)-2-methylpyridin-3-yl)-2-(5-(methylsulfonyl)pyridin-3-yl)pyrazolo[5,1-b]thiazole-7-carboxamide] | 791 |  |
| Cc1ncc(C(=O)NCCN2C[C@H]3CC[C@@H]2C3)cc1NC(=O)c1cnn2cc(-c3cnn(C)c3C)sc12 [Example 208, N-(5-((2-((1R,4S)-2-azabicyclo[2.2.1]heptan-2-yl)ethyl)carbamoyl)-2-methylpyridin-3-yl)-2-(1,5-dimethyl-1H-pyrazol-4-yl)pyrazolo[5,1-b]thiazole-7-carboxamide] | 96 |  |
| Cn1cc(-c2cn3ncc(C(=O)Nc4sc(C(=O)NCCN5CCCC56CCC6)cc4C#N)c3s2)cn1 [Example 206, N-(5-((2-(5-azaspiro[3.4]octan-5-yl)ethyl)carbamoyl)-3-cyanothiophen-2-yl)-2-(1-methyl-1H-pyrazol-4-yl)pyrazolo[5,1-b]thiazole-7-carboxamide] | > 3000 |  |
| Cc1cc(C(=O)NCCN2CCCC2(C)C)sc1NC(=O)c1cnn2cc(-c3cnn(C)c3)sc12 [Example 182, N-(5-((2-(2,2-dimethylpyrrolidin-1-yl)ethyl)carbamoyl)-3-methylthiophen-2-yl)-2-(1-methyl-1H-pyrazol-4-yl)pyrazolo[5,1-b]thiazole-7-carboxamide] | 1680 |  |
| Cc1cc(C(=O)NCCN2CCCC2(C)C)sc1NC(=O)c1cnn2cc(-c3ccn(C)n3)sc12 [Example 188, N-(5-((2-(2,2-dimethylpyrrolidin-1-yl)ethyl)carbamoyl)-3-methylthiophen-2-yl)-2-(1-methyl-1H-pyrazol-3-yl)pyrazolo[5,1-b]thiazole-7-carboxamide] | 347 |  |
| Cc1ncc(C(=O)NCCN2CC3CCC2CC3)cc1NC(=O)c1cnn2cc(-c3cnn(C4CC4)c3)sc12 [Example 181, N-(5-((2-(2-azabicyclo[2.2.2]octan-2-yl)ethyl)carbamoyl)-2-methylpyridin-3-yl)-2-(1-cyclopropyl-1H-pyrazol-4-yl)pyrazolo[5,1-b]thiazole-7-carboxamide] | 16.1 |  |
| Cc1ncc(C(=O)NCCN2CCCC2)cc1NC(=O)c1cnn2cc(-c3cn(C)nc3C)sc12 [Example 218, 2-(1,3-Dimethyl-1H-pyrazol-4-yl)-N-(2-methyl-5-((2-(pyrrolidin-1-yl)ethyl)carbamoyl)pyridin-3-yl)pyrazolo[5,1-b]thiazole-7-carboxamide] | 78.8 |  |
| Cc1ncc(C(=O)NC2CN(C(C)(C)C)C2)cc1NC(=O)c1cnn2cc(-c3cccc4c3cnn4C)sc12 [Example 238, N-(5-((1-(tert-butyl)azetidin-3-yl)carbamoyl)-2-methylpyridin-3-yl)-2-(1-methyl-1H-indazol-4-yl)pyrazolo[5,1-b]thiazole-7-carboxamide] | 181 |  |
| Cc1ncc(NC(=O)CN2CCCC23CC3)cc1NC(=O)c1cnn2cc(-c3cnn(C)c3)sc12 [Example 16, N-(5-(2-(4-azaspiro[2.4]heptan-4-yl)acetamido)-2-methylpyridin-3-yl)-2-(1-methyl-1H-pyrazol-4-yl)pyrazolo[5,1-b]thiazole-7-carboxamide] | 4.1 |  |
| Cc1ncc(C(=O)NCCN2CC3CCC2CC3)cc1NC(=O)c1cnn2cc(-c3cnn(C(F)F)c3)sc12 [Example 180, N-(5-((2-(2-azabicyclo[2.2.2]octan-2-yl)ethyl)carbamoyl)-2-methylpyridin-3-yl)-2-(1-(difluoromethyl)-1H-pyrazol-4-yl)pyrazolo[5,1-b]thiazole-7-carboxamide] |  | 38.4 |
| Cc1ncc(NC(=O)OCCN(C)C2CCCCC2)cc1NC(=O)c1cnn2cc(-c3cnn(C)c3)sc12 [Example 251, 2-(cyclohexyl(methyl)amino)ethyl (6-methyl-5-(2-(1-methyl-1H-pyrazol-4-yl)pyrazolo[5,1-b]thiazole-7-carboxamido)pyridin-3-yl)carbamate] | 28.4 |  |
| Cc1ncc(C(=O)NCCN2CCCC2(C)C)cc1NC(=O)c1cnn2cc(-c3c(C)n[nH]c3C)sc12 [Example 231, 2-(3,5-Dimethyl-1H-pyrazol-4-yl)-N-(5-((2-(2,2-dimethylpyrrolidin-1-yl)ethyl)carbamoyl)-2-methylpyridin-3-yl)pyrazolo[5,1-b]thiazole-7-carboxamide] | 73.1 |  |
| Cc1ncc(NC(=O)CN2CCN(C)CC2)cc1NC(=O)c1cnn2cc(-c3cnn(C)c3)sc12 [Example 232, 2-(1-methyl-1H-pyrazol-4-yl)-N-(2-methyl-5-(2-(4-methylpiperazin-1-yl)acetamido)pyridin-3-yl)pyrazolo[5,1-b]thiazole-7-carboxamide] | 1730 |  |
| Cc1cc(C(=O)NCCN2CC[C@H](O)C2)sc1NC(=O)c1cnn2cc(-c3cnn(C)c3)sc12 [Example 195, (S)—N-(5-((2-(3-hydroxypyrrolidin-1-yl)ethyl)carbamoyl)-3-methylthiophen-2-yl)-2-(1-methyl-1H-pyrazol-4-yl)pyrazolo[5,1-b]thiazole-7-carboxamide] | > 3000 |  |
| Cc1ncc(C(=O)NC[C@H]2CCCN2CCO)cc1NC(=O)c1cnn2cc(-c3cnn(C)c3)sc12 [Example 236, (R)—N-(5-(((1-(2-hydroxyethyl)pyrrolidin-2-yl)methyl)carbamoyl)-2-methylpyridin-3-yl)-2-(1-methyl-1H-pyrazol-4-yl)pyrazolo[5,1-b]thiazole-7-carboxamide] | 677 |  |
| Cc1cc(C(=O)NCCN2[C@H](C)CCC[C@@H]2C)sc1NC(=O)c1cnn2cc(-c3cnn(C)c3)sc12 [Example 198, N-(5-((2-((2S,6R)-2,6-dimethylpiperidin-1-yl)ethyl)carbamoyl)-3-methylthiophen-2-yl)-2-(1-methyl-1H-pyrazol-4-yl)pyrazolo[5,1-b]thiazole-7-carboxamide] |  | 105 |
| COc1ncccc1-c1cn2ncc(C(=O)Nc3cc(NC(=O)CN4CCCC4(C)C)cnc3C)c2s1 [Example 233, N-(5-(2-(2,2-dimethylpyrrolidin-1-yl)acetamido)-2-methylpyridin-3-yl)-2-(2-methoxypyridin-3-yl)pyrazolo[5,1-b]thiazole-7-carboxamide] | 1.3 |  |
| Cc1cc(C(=O)NCCN2CC3CCC2CC3)sc1NC(=O)c1cnn2cc(-c3cnn(C)c3)sc12 [Example 199, N-(5-((2-(2-azabicyclo[2.2.2]octan-2-yl)ethyl)carbamoyl)-3-methylthiophen-2-yl)-2-(1-methyl-1H-pyrazol-4-yl)pyrazolo[5,1-b]thiazole-7-carboxamide] | 237 |  |
| Cc1ncc(C(=O)NCCN2CCCC2)cc1NC(=O)c1cnn2cc(-c3cn(C)nc3C(F)(F)F)sc12 [Example 227, 2-(1-Methyl-3-(trifluoromethyl)-1H-pyrazol-4-yl)-N-(2-methyl-5-((2-(pyrrolidin-1-yl)ethyl)carbamoyl)pyridin-3-yl)pyrazolo[5,1-b]thiazole-7-carboxamide] | 438 |  |
| Cc1ncc(NC(=O)CCN2CCCC2(C)C)cc1NC(=O)c1cnn2cc(-c3cccc4c3cnn4C)sc12 [Example 241, N-(5-(3-(2,2-dimethylpyrrolidin-1-yl)propanamido)-2-methylpyridin-3-yl)-2-(1-methyl-1H-indazol-4-yl)pyrazolo[5,1-b]thiazole-7-carboxamide] | 2.7 |  |
| Cc1cc(C(=O)NCCN2CCC(C)(C)C2)sc1NC(=O)c1cnn2cc(-c3cnn(C)c3)sc12 [Example 189, N-(5-((2-(3,3-dimethylpyrrolidin-1-yl)ethyl)carbamoyl)-3-methylthiophen-2-yl)-2-(1-methyl-1H-pyrazol-4-yl)pyrazolo[5,1-b]thiazole-7-carboxamide] | 72.3 |  |
| Cc1cc(C(=O)NCCN2CCc3ccccc3C2)sc1NC(=O)c1cnn2cc(-c3cnn(C)c3)sc12 [Example 204, N-(5-((2-(3,4-dihydroisoquinolin-2 (1H)-yl)ethyl)carbamoyl)-3-methylthiophen-2-yl)-2-(1-methyl-1H-pyrazol-4-yl)pyrazolo[5,1-b]thiazole-7-carboxamide] | 460 |  |
| Cc1ncc(C(=O)NCCN2C[C@H]3CC[C@@H]2C3)cc1NC(=O)c1cnn2cc(-c3cn(C)nc3C)sc12 [Example 211, N-(5-((2-((1R,4S)-2-azabicyclo[2.2.1]heptan-2-yl)ethyl)carbamoyl)-2-methylpyridin-3-yl)-2-(1,3-dimethyl-1H-pyrazol-4-yl)pyrazolo[5,1-b]thiazole-7-carboxamide] | 63.6 |  |
| COc1ncccc1-c1cn2ncc(C(=O)Nc3cc(C(=O)NCCN4CCC[C@H]4C)cnc3C)c2s1 [Example 242, (R)-2-(2-methoxypyridin-3-yl)-N-(2-methyl-5-((2-(2-methylpyrrolidin-1-yl)ethyl)carbamoyl)pyridin-3-yl)pyrazolo[5,1-b]thiazole-7-carboxamide] | 6.1 |  |
| Cc1ncc(NC(=O)CN2CCCC2(C)C)cc1NC(=O)c1cnn2cc(-c3cnn(C)c3)sc12 [Example 13, N-(5-(2-(2,2-dimethylpyrrolidin-1-yl)acetamido)-2-methylpyridin-3-yl)-2-(1-methyl-1H-pyrazol-4-yl)pyrazolo[5,1-b]thiazole-7-carboxamide] | 3.3 |  |
| Cc1cc(C(=O)NCCN2CC[C@@H](O)C2)sc1NC(=O)c1cnn2cc(-c3cnn(C)c3)sc12 [Example 194, (R)—N-(5-((2-(3-hydroxypyrrolidin-1-yl)ethyl)carbamoyl)-3-methylthiophen-2-yl)-2-(1-methyl-1H-pyrazol-4-yl)pyrazolo[5,1-b]thiazole-7-carboxamide] | > 3000 |  |
| Cc1ncc(C(=O)NCCN2CCCC2)cc1NC(=O)c1cnn2cc(-c3cnn(CC(O)CO)c3)sc12 (stereo not shown) [Example 225, 2-(1-(2,3-Dihydroxypropyl)-1H-pyrazol-4-yl)-N-(2-methyl-5-((2-(pyrrolidin-1-yl)ethyl)carbamoyl)pyridin-3-yl)pyrazolo[5,1-b]thiazole-7-carboxamide] | > 2000 |  |
